Values of other authors as cited in US8758840B2, “Method of treating areas of osteoarthritis in animals and human beings with milkweed seed oil” (Natural Fibers Corporation, priority 2011, dated 2014).

Tested on: pro-inflammatory and matrix degradation mediators involved in osteoarthritis-induced cartilage degradation
Conditions: laboratory tests, Gabay et al. 2010

CC[C@H](/C=C/[C@@H](C)[C@H]1CC[C@H]2[C@@H]3CC=C4C[C@@H](O)CC[C@]4(C)[C@H]3CC[C@]12C)C(C)C [stigmasterol]
effect on pro-inflammatory and matrix degradation mediators: inhibits several pro-inflammatory and matrix degradation mediators
